The results in this text go back to patent publication US20170172994A1, “COMPOSITIONS AND METHODS FOR TREATING BACTERIAL INFECTIONS” (WOCKHARDT LIMITED, priority 2013, published 2017).

The test system of one assay is E. coli ATCC 25922. The assay is described as follows: Microbiological drug diffusion assay, standalone compounds in absence of beta-lactamase enzymes. The format is cell-based. Particulars: Escherichia coli, read-out: Inhibition zone diameter. How it is done:
(§1) Next, the beta-lactamase stability of some of these compounds was evaluated. In a typical stability study, ESBL enzymes from K. pneumoniae S48 producing Metalo betalactamase (NDM4) and Class A (CTX-M, SHV, TEM) beta-lactamase were isolated from freshly grown culture by 5 repetitive cycles of freeze and thaw in liquid nitrogen. […] After the stipulated incubation duration, the test compounds were extracted from the reaction mixture by the addition of 0.5 ml of Acetonitrile in 1:1 ratio (final concentration of test compound—40 μg/ml) and centrifuged at 12000 rpm for 2 min to separate precipitated protein. The activity of test compounds was measured from the supernatant by performing microbiological drug diffusion assay. For drug diffusion assay, Muller-Hinton Agar (MHA) seeded with E. coli ATCC 25922 was poured on to a bioassay plate placed on a flat surface and allowed to solidify. Appropriate concentration of the standalone and enzyme treated test compound dilutions were added to 6 mm wells cut with the help of a borer. The antibacterial activity of the test compounds was measured in terms of zones of inhibition appearing after 18-24 hours of incubation at 37° C. Measurement of diameter of zone of inhibition was undertaken to the nearest whole value with the help of ruler.

Assay [1] concerns K. pneumonia S48 expressing multiple ESBLs including MBL (NDM4) and Class A (CTX-M, SHV, TEM). The format is cell-based, K. pneumoniae. Particulars: Cefepime 8 μg/ml, Compound of Formula (III) 2 μg/ml, Clavulanic acid 2 μg/ml, Mecillinam 2 μg/ml, Imipenem 8 μg/ml. As to the method:
Log phase cultures were diluted to desired inoculums in flasks with MHB, containing various drug concentrations. Flasks were incubated at 35° C. in orbital shaker with rotational speed of 125 rpm. […] Plates were incubated for 24 hours at 35° C. and colonies were enumerated to determine the colony forming units (CFU) per ml volume.

The subject of assay [2] is MDR Klebsiella pneumoniae B 88 producing NDM, SHV & TEM beta-lactamases. As to the kind of experiment: Time kill study at MFC and MSC. Particulars: Cefepime 8 mcg/ml (MFC), Compound of Formula (III) 0.12 mcg/ml (MSC), Imepenem 8 mcg/ml. The format is cell-based. How it is done: (§2) The synergistic killing effect of the combinations according to invention was studied by performing time kill studies. In a typical time kill study, the freshly grown cultures were diluted to the required cell density (initial starting inoculum) in Cation adjusted Muller Hinton broth medium (BD, USA). The antibacterial agents (either alone or in combination) at the required concentrations were added into the culture-containing medium. The samples were incubated under shaking condition (120 rpm) at 37° C. Enumeration of viable bacterial count was done every 2 hour by diluting in normal saline and plating on to the Tryptic Soya Agar plates (BD, USA). The plates were incubated for 24 hours to arrive at the viable bacterial count. The results are expressed in terms of Log CFU per ml. In general, the decrease of 1 Log CFU/ml, corresponds to 90% killing of bacteria. Similarly, 2 Log CFU/ml reductions indicates to 99% killing of bacteria and 3 Log CFU/ml reductions is equal to 99.9% killing of bacteria.

Assay [3] has as its system MDR P. mirabilis G 186 producing NDM & TEM β-lactamases. The assay is described as follows: Time kill study at MFC and MSC. The format is cell-based. The settings on record: Cefepime 8 mcg/ml (MFC), Compound of Formula (III) 0.25 mcg/ml (MSC), Imepenem 8 mcg/ml. How it is done: as §2
Assay [4] concerns Acinetobacter baumannii NCTC 13304 producing carbapenem hydrolyzing Class D OXA enzyme (OXA 27). The assay is described as follows: Time kill study (viability count). The format is cell-based. The settings on record: Cefepime 8 μg/ml, Compound of Formula (III) 8 μg/ml, Imipenem 16 μg/ml. As to the method:
(§3) The antibacterial effectiveness of various antibacterial agents in presence of a compound of Formula (III) was investigated and the results are detailed below. In a typical study, overnight cultures in Trypticase soya broth (TSB) were brought to log phase by 1 in 10 dilution in fresh cation adjusted Mueller Hinton Broth (MHB) and incubation for 2.5 hours at 35° C. in orbital shaker. Log phase cultures were diluted to desired inoculums in flasks with MHB, containing various drug concentrations. Flasks were incubated at 35° C. in orbital shaker with rotational speed of 125 rpm. Viability count was determined by 1 in 10 serial dilutions of samples in normal saline and surface spreading of 10 μl of dilutions in duplicate on Trypticase soya agar plates. Plates were incubated for 24 hours at 35° C. and colonies were enumerated to determine the colony forming units (CFU) per ml volume.

Assay [5] has as its system Pseudomonas aeruginosa NCTC 13437 producing carbapenem hydrolyzing MBL (VIM 10) & Class A (VEB1). As to the kind of experiment: Time kill study (viability count). The settings on record: Cefepime 8 μg/ml, Compound of Formula (III) 8 μg/ml, Imipenem 16 μg/ml. The format is cell-based. As to the method: as §3
In assay [6] the test system is ESBL enzymes from K. pneumoniae S48 producing Metalo betalactamase (NDM4) and Class A (CTX-M, SHV, TEM) beta-lactamase. The assay is described as follows: Beta-lactamase stability study (crude enzyme extract, then drug diffusion assay on E. coli ATCC 25922). The format is biochemical. The settings on record: for Inhibition zone diameter after treatment with beta-lactamase enzyme: 40 μg/ml, zone on E. coli ATCC 25922. As to the method: as §1

For the next assay, the target named is T1, Pseudomonas PBP 1A (Pseudomonas aeruginosa, UniProt Q07806).
T1 construct: endogenous in cells
T1 sequence (Q07806 whole entry): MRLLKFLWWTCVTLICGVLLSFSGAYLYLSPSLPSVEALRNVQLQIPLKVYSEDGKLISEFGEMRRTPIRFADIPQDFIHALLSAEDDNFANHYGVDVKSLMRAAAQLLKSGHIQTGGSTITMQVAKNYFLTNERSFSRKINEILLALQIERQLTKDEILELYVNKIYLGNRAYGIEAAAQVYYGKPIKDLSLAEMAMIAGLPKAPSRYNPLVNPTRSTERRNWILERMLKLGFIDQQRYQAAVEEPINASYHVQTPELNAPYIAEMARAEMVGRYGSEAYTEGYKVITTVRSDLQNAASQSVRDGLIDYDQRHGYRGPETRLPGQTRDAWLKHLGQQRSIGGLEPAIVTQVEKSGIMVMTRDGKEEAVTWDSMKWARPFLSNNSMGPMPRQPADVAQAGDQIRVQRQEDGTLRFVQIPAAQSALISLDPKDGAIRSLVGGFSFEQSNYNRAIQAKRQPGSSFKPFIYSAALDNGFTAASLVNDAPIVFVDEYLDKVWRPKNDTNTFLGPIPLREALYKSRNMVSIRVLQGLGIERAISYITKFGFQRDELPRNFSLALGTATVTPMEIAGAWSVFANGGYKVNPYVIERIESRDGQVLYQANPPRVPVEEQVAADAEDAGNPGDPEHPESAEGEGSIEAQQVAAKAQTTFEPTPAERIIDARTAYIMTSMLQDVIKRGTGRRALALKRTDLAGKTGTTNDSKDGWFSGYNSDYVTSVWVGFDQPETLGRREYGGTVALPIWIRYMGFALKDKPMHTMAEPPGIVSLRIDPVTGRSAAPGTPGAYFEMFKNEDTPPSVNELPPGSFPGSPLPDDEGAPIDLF
The assay is described as follows: PBP binding assay (Bocillin FL competition). How it is done: (§4) The phrase “selective and high affinity PBP binder” refers to a PBP binder which binds to only one PBP with very high affinity. In general, the term “selective and high affinity PBP binder” also includes those binders where a substantial fraction of binder selectively binds to only one PBP with high affinity. […]. The term “IC50 value” of a compound refers to the concentration of the compound that reduces the binding of Bocillin-FL to PBPs by 50% as compared to when no compound was added to the reaction.
(§5) A compound of Formula (III) was prepared using the procedure disclosed in PCT International Application No. PCT/IB2012/054290 and was evaluated for its PBP binding affinity profile. […] The reaction mixtures were then denatured with 20 μl each of SDS-denaturing solution at 100° C. for 3 min PBPs were separated through 10% SDS polyacrylamide gel electrophoresis (Bio-Rad Laboratories, Hercules, Calif.). The protein gels were rinsed in water immediately after electrophoresis. […] […].

The target of the next assay is Pseudomonas PBP 5/6 (Pseudomonas aeruginosa, UniProt G3XD74). The assay is described as follows: PBP binding assay (Bocillin FL competition). Particulars: read-out: IC50. As to the method: as §4, §5
Pseudomonas PBP 5/6, sequence (G3XD74 entry or part of it): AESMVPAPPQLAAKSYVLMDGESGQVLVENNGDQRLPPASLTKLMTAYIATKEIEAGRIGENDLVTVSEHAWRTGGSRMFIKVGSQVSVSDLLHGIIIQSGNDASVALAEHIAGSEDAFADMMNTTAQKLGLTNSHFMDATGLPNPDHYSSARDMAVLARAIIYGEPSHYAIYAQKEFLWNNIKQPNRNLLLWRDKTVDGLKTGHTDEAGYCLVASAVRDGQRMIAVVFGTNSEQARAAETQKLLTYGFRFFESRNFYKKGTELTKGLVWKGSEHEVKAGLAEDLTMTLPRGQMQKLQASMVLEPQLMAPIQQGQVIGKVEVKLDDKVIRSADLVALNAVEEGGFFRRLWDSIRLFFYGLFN
A further assay has as its system K pneumoniae J 101. As to the kind of experiment: MIC determination (agar dilution, CLSI). The format is cell-based. The settings on record: K pneumoniae J 101 (TEM1, SHV12, OMP); standalone. How it is done:
(§6) In a typical procedure for determining MIC values, overnight grown bacterial cultures were diluted appropriately and inoculated on the agar media containing doubling concentrations of the test compounds. Observation for growth or no growth was performed after 16-20 hours of incubation at 35±2° C. in ambient air. The overall procedure was performed as per Clinical and Laboratory Standards Institute (CLSI) recommendations (Clinical and Laboratory Standards Institute (CLSI), Performance Standards for Antimicrobial Susceptibility Testing, 20th Informational Supplement, M 100-S20, Volume 30, No. 1, 2010).

Another assay deals with K pneumoniae J 105. The assay is described as follows: MIC determination (agar dilution, CLSI). The format is cell-based. The settings on record: K pneumoniae J 105 (TEM1, SHV2, CTX-M, OMP); standalone. How it is done:
as §6
Background: In agar dilution the substance is mixed into plates at graded concentrations.

Another assay relates to K pneumoniae J 104. The assay is described as follows: MIC determination (agar dilution, CLSI). The format is cell-based. The settings on record: K pneumoniae J 104 (TEM1, SHV11, CTX-M, OMP); standalone. As to the method:
as §6

In the next assay the test system is K pneumoniae J 102. The assay is described as follows: MIC determination (agar dilution, CLSI). The format is cell-based. The settings on record: K pneumoniae J 102 (TEM1, SHV5, OMP); standalone. As to the method: as §6

Values after ≈ are worked out from the molar mass of the structure shown. Like-named read-outs stand apart in the source and are kept apart here.

In the case of `C[C@@H](O)[C@H]1C(=O)N2C(C(=O)O)=C(SCCN=CN)C[C@H]12` [Imipenem], the zone of inhibition at 40 µg/mL turned out to be 22 mm with E. coli ATCC 25922 (ATCC25922, 40 μg/ml, no beta-lactamase, 0 hour); 22 mm in the assay with E. coli ATCC 25922 (ATCC25922, 40 μg/ml, no beta-lactamase, 1 hour); 22 mm in the assay with E. coli ATCC 25922 (ATCC25922, 40 μg/ml, no beta-lactamase, 2 hours); 22 mm in the assay with E. coli ATCC 25922 (ATCC25922, 40 μg/ml, no beta-lactamase, 24 hours). Further, the Bacterial count in assay [1] (0 hour) is given as 5.5 log (CFU/ml); in assay [1] (2 hours), 3.0 log (CFU/ml); in assay [1] (4 hours), 3.0 log (CFU/ml); in assay [1] (6 hours), 4.0 log (CFU/ml); in assay [1] (24 hours), 8.69 log (CFU/ml); in [2] (0 hour), 6.14 Log10 CFU/ml. The Bacterial count in assay [2] (2 hours) is recorded as 8.65 Log10 CFU/ml; in [2] (4 hours), 8.7 Log10 CFU/ml; in assay [2] (6 hours), 8.74 Log10 CFU/ml; in assay [2] (8 hours) it was 8.78 Log10 CFU/ml; in [3] (0 hour), 6.58 Log10 CFU/ml; in assay [3] (2 hours) it was 7.2 Log10 CFU/ml. Further, the Bacterial count in assay [3] (4 hours) is on record as 9.45 Log10 CFU/ml; in assay [3] (6 hours), 8.65 Log10 CFU/ml; in assay [3] (8 hours), 8.85 Log10 CFU/ml; in assay [4] (0 hour), 6.3 log (CFU/ml); in assay [4] (2 hours), 7.2 log (CFU/ml); in assay [4] (4 hours) it was 7.9 log (CFU/ml). Further, the Bacterial count in assay [4] (6 hours) is 7.9 log (CFU/ml); in [4] (8 hours), 8 log (CFU/ml); in [5] (0 hour), 6.0 log (CFU/ml); in assay [5] (2 hours), 7.2 log (CFU/ml); in assay [5] (4 hours), 7.9 log (CFU/ml); in [5] (6 hours), 7.9 log (CFU/ml). Further, in assay [5] (12 hours), the Bacterial count is given as 8.3 log (CFU/ml).
`CC1(C)S[C@@H]2[C@H](/N=C/N3CCCCCC3)C(=O)N2[C@H]1C(=O)O` [Mecillinam]: the zone of inhibition at 40 µg/mL in the assay with E. coli ATCC 25922 (ATCC25922, 0 h) worked out at 15.5 mm; in the assay with E. coli ATCC 25922 (ATCC25922, 1 h), 15.5 mm; in the assay on E. coli ATCC 25922 (ATCC25922, 2 h), 15.5 mm; in the assay with E. coli ATCC 25922 (ATCC25922, 24 h) it was 15.5 mm. For the same compound, the “Inhibition zone diameter after treatment with beta-lactamase enzyme” value in assay [6] (0 hour incubation at 37° C.) was 15.5 mm; in [6] (1 hour incubation at 37° C.) it was 12 mm; in assay [6] (2 hours incubation at 37° C.), 0 mm; in assay [6] (24 hours incubation at 37° C.), 0 mm. The “Stability to beta-lactamase (in words)” value in [6] (carbapenem hydrolyzing metallo beta-lactamase, up to 24 hours) is listed as “not stable to the beta-lactamase”. In addition, the IC50 at Pseudomonas PBP 1A and on Pseudomonas PBP 5/6 was greater than 12.3 µM in each case.
For the compound `C[C@@H](O)[C@H]1C(=O)N2C(C(=O)O)=C(S[C@@H]3CN[C@H](C(=O)N(C)C)C3)[C@H](C)[C@H]12` [Meropenem], the MIC with K pneumoniae J 101 was found to be 4 µg/mL (≈ 10.4 µM); against K pneumoniae J 105, 4 µg/mL (≈ 10.4 µM); in the assay with K pneumoniae J 104, 4 µg/mL (≈ 10.4 µM); against K pneumoniae J 102, 8 µg/mL (≈ 20.9 µM).

As usually defined, the IC50 is the concentration at which inhibition is half-maximal. What is called MIC is the lowest concentration found to suppress growth. Read a high MIC as weaker potency.
